This note sets out measurements from US12570648B2, “6,7-dihydro-5H-pyrido[2,3-c]pyridazine derivatives and related compounds as Bcl-xL protein inhibitors and pro-apoptotic agents for treating cancer” (LES LABORATOIRES SERVIER, priority 2019, dated 2026).

The term IC50 denotes the concentration that gives 50% inhibition. A lower IC50 goes with inhibition by little substance. Broadly, the Ki is a dissociation constant, usually derived from enzyme kinetics or from competition with a known ligand.

For one experiment, the system named is MOLT-4 cells. As to the kind of experiment: MOLT-4 cell viability using MTT assay. Type of experiment: cell-based. The note with it: 48 h exposure. The method, then:
MTT colorimetric assay is based on the mitochondrial reduction of tetrazolium salt by living cells.
Cells were cultured at 37° C. in a humidified atmosphere containing 5% CO2. […] At the end of incubation time, 15 μL of MTT solution (5 mg/ml) were added per well and the cells were incubated for another 4 h. […] IC50s were calculated using standard four-parametric curve fitting.
(Formazan colour is commonly taken as a measure of viable cells.)

The target in experiment [1] is His-His-(EK)-hsBCLXL(2-197)[N197C] (Homo sapiens (Human), UniProt Q07817, N197C). As to the kind of experiment: Fluorescence quenching assay. It counts as binding. The note with it: 1 nM Cy5-labelled protein, 400 nM PUMA peptide, 2 hours at 23° C.; KI determined from IC50. An excerpt: Fluorescence quenching assay measures the change in fluorescence intensity of C-terminally Cy5-labelled BCL-xL protein, His-His-(EK)-hsBCLXL(2-197)[N197C] (UniProtKB®
which is linked in C-terminal region to the amino acid X which corresponds to a cysteine labelled on the sulfur with Sulfo-Cyanine5 from Lumiprobe GmbH catalogue number 13380, upon binding of a C-terminally labelled peptide derived from PUMA (UniProtKB® primary accession number Q9BXH1) having an aminoacid sequence (SEQ ID:04): [[…]] which is linked in C-terminal region to the amino acid X′ where X′ is cysteine labelled on the sulfur with TQ5WS from AAT Bioquest catalogue number 2079.
The addition of a compound which binds competitively to the same site as the peptide will result in an increase in the fluorescence intensity of the protein due to displacement of the fluorescence quencher.
An 11-point serial dilution of each compound was prepared in DMSO, the final buffer conditions were 10 mM 4-(2-hydroxyethyl)-1-piperazineethanesulfonic acid [HEPES], 150 mM NaCl, 0.05% Tween 20, pH 7.4 and 5% DMSO. The final protein concentration in the assay was 1 nM with the peptide present at 400 nM. The experiments were incubated for 2 hours at 23° C. before fluorescence intensity was measured on a Biotek SynergyNeo plate reader (Excitation 620 nm, emission 680 nm). […] The K1 values were determined from the IC50 values according to Cer et al, Nucleic Acids Res, 2009, Jul. 1; 37 (WebServer issue): W441-W445.

His-His-(EK)-hsBCLXL(2-197)[N197C], sequence (Q07817 2-197 N197C): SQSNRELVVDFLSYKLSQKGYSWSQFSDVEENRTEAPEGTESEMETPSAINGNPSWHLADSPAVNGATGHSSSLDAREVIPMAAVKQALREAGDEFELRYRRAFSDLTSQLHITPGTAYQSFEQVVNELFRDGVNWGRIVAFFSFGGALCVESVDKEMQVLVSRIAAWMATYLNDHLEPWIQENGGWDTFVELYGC

As for `Cc1c(Nc2nc3ccccc3s2)nnc2c1CCCN2c1ccc(-c2cnn(CC34CC5(C)CC(C)(C3)CC(OCCN3CCNCC3)(C5)C4)c2C)c(C(=O)O)n1` [Example 144, 6-[3-(1,3-benzothiazol-2-ylamino)-4-methyl-6,7-dihydro-5H-pyrido[2,3-c]pyridazin-8-yl]-3-[1-[[3,5-dimethyl-7-(2-piperazin-1-ylethoxy)-1-adamantyl]methyl]-5-methyl-pyrazol-4-yl]pyridine-2-carboxylic acid], in the experiment on MOLT-4 cells (Homo sapiens, MOLT-4, 48 h), the IC50 worked out at 13.2 nM. In addition, in experiment [1], the Ki was determined as 0.0014 nM.
As to `Cc1c(Nc2nc3ccccc3s2)nnc2c1CCCN2c1ccc(-c2cnn(CC34CC5(C)CC(C)(C3)CC(OCCN(C)CCO)(C5)C4)c2C)c(C(=O)O)n1` [Example 150, 6-[3-(1,3-benzothiazol-2-ylamino)-4-methyl-6,7-dihydro-5H-pyrido[2,3-c]pyridazin-8-yl]-3-[1-[[3-[2-[2-hydroxyethyl(methyl)amino]ethoxy]-5,7-dimethyl-1-adamantyl]methyl]-5-methyl-pyrazol-4-yl]pyridine-2-carboxylic acid], in the experiment on MOLT-4 cells (Homo sapiens, MOLT-4, 48 h), the IC50 amounted to 0.219 nM. Moreover, in experiment [1], the Ki stood at 0.0015 nM.
With `Cc1c(Nc2nc3ccccc3s2)nnc2c1CCCN2c1ccc(-c2cnn(CC34CC5(C)CC(C)(C3)CC(OCCNCC[C@@H](O)CO)(C5)C4)c2C)c(C(=O)O)n1` [Example 93, 6-{3-[(1,3-benzothiazol-2-yl)amino]-4-methyl-6,7-dihydropyrido[2,3-c]pyridazin-8(5H)-yl}-3-(1-{[3-(2-{[(3R)-3,4-dihydroxybutyl]amino}ethoxy)-5,7-dimethyladamantan-1-yl]methyl}-5-methyl-1H-pyrazol-4-yl)pyridine-2-carboxylic acid], half-maximal inhibition in the experiment with MOLT-4 cells (IC50) required 14.2 nM. The Ki in experiment [1] worked out at 0.0024 nM.
With `Cc1c(Nc2nc3ccccc3s2)nnc2c1CCCN2c1ccc(-c2cnn(CC34CC5(C)CC(C)(C3)CC(OCCNCCS(=O)(=O)O)(C5)C4)c2C)c(C(=O)O)n1` [Example 96, 6-{3-[(1,3-benzothiazol-2-yl)amino]-4-methyl-6,7-dihydropyrido[2,3-c]pyridazin-8(5H)-yl}-3-{1-[(3,5-dimethyl-7-{2-[(2-sulfoethyl)amino]ethoxy}adamantan-1-yl)methyl]-5-methyl-1H-pyrazol-4-yl}pyridine-2-carboxylic acid], in the experiment with MOLT-4 cells (Homo sapiens, MOLT-4, 48 h), it took 8.27 nM to reach half-maximal inhibition (IC50). Also, the Ki in experiment [1] is 0.0022 nM.
Consider `Cc1c(Nc2nc3ccccc3s2)nnc2c1CCCN2c1nc(C(=O)O)c(CCCOc2ccc(C#CCN3CCNCC3)cc2F)s1` [Example 79, 2-[3-(1,3-Benzothiazol-2-ylamino)-4-methyl-6,7-dihydro-5H-pyrido[2,3-c]pyridazin-8-yl]-5-[3-[2-fluoro-4-(3-piperazin-1-ylprop-1-ynyl)phenoxy]propyl]thiazole-4-carboxylic acid], for which, in the experiment with MOLT-4 cells (Homo sapiens, MOLT-4, 48 h), the IC50 worked out at 1.01 nM. Besides, in experiment [1], the Ki was determined as 0.0052 nM.
In the same order, the values of `Cc1c(Nc2nc3ccccc3s2)nnc2c1CCCN2c1nc(C(=O)O)c(CCCOc2ccc(C#CC(C)(C)N(C)C)cc2F)s1` [Example 83, 2-[3-(1,3-Benzothiazol-2-ylamino)-4-methyl-6,7-dihydro-5H-pyrido[2,3-c]pyridazin-8-yl]-5-[3-[4-[3-(dimethylamino)-3-methyl-but-1-ynyl]-2-fluoro-phenoxy]propyl]thiazole-4-carboxylic acid] are 0.573 nM and 0.026 nM.
Turning to `Cc1c(Nc2nc3ccccc3s2)nnc2c1CCCN2c1nc(C(=O)O)c(CCCOc2ccc(C#CCNCC[C@H](O)CO)cc2F)s1` [Example 129, 2-[3-(1,3-benzothiazol-2-ylamino)-4-methyl-6,7-dihydro-5H-pyrido[2,3-c]pyridazin-8-yl]-5-[3-[4-[3-[[(3S)-3,4-dihydroxybutyl]amino]prop-1-ynyl]-2-fluoro-phenoxy]propyl]thiazole-4-carboxylic acid], in the experiment with MOLT-4 cells (Homo sapiens, MOLT-4, 48 h), half-maximal inhibition (IC50) was put at 3.11 nM. The Ki in experiment [1] was 0.0047 nM.
Compound `CNCCOC12CC3(C)CC(C)(CC(Cn4ncc(-c5ccc(N6CCCc7c6nnc(Nc6nc8ccccc8s6)c7C)nc5C(=O)O)c4C)(C3)C1)C2` [Example 94, 6-{3-[(1,3-benzothiazol-2-yl)amino]-4-methyl-6,7-dihydropyrido[2,3-c]pyridazin-8(5H)-yl}-3-[1-({3,5-dimethyl-7-[2-(methylamino)ethoxy]adamantan-1-yl}methyl)-5-methyl-1H-pyrazol-4-yl]pyridine-2-carboxylic acid] registered an IC50 in the experiment with MOLT-4 cells (Homo sapiens, MOLT-4, 48 h) of 0.616 nM. The Ki in experiment [1] was found to be 0.0015 nM.
In turn, `Cc1c(Nc2nc3ccccc3s2)nnc2c1CCCN2c1ccc(-c2cnn(CC34CC5(C)CC(C)(C3)CC(OCCN3CCN(C(C)C)CC3)(C5)C4)c2C)c(C(=O)O)n1` [Example 146, 6-[3-(1,3-benzothiazol-2-ylamino)-4-methyl-6,7-dihydro-5H-pyrido[2,3-c]pyridazin-8-yl]-3-[1-[[3-[2-(4-isopropylpiperazin-1-yl)ethoxy]-5,7-dimethyl-1-adamantyl]methyl]-5-methyl-pyrazol-4-yl]pyridine-2-carboxylic acid] showed an IC50 in the experiment on MOLT-4 cells (Homo sapiens, MOLT-4, 48 h) of 0.247 nM. Moreover, in experiment [1], the Ki stood at 0.0032 nM.
`Cc1c(Nc2nc3ccccc3s2)nnc2c1CCCN2c1ccc(-c2cnn(CC34CC5(C)CC(C)(CC(CCCN(C)C)(C5)C3)C4)c2C)c(C(=O)O)n1` [Example 167, 6-[3-(1,3-benzothiazol-2-ylamino)-4-methyl-6,7-dihydro-5H-pyrido[2,3-c]pyridazin-8-yl]-3-[1-[[3-[3-(dimethylamino)propyl]-5,7-dimethyl-1-adamantyl]methyl]-5-methyl-pyrazol-4-yl]pyridine-2-carboxylic acid]: in the experiment with MOLT-4 cells (Homo sapiens, MOLT-4, 48 h), half-maximal inhibition (IC50) was put at 0.0532 nM. The Ki in experiment [1] was found to be 0.0019 nM.
In turn, `Cc1c(Nc2nc3ccccc3s2)nnc2c1CCCN2c1nc(C(=O)O)c(CCCOc2ccc(C#CCN(C)C)cc2)s1` [Example 141, 2-[3-(1,3-benzothiazol-2-ylamino)-4-methyl-6,7-dihydro-5H-pyrido[2,3-c]pyridazin-8-yl]-5-[3-[4-[3-(dimethylamino)prop-1-ynyl]phenoxy]propyl]thiazole-4-carboxylic acid] gave a half-inhibitory concentration (IC50) in the experiment with MOLT-4 cells (Homo sapiens, MOLT-4, 48 h) of 0.098 nM. In addition, the Ki in experiment [1] came out at 0.0085 nM.
The compound `CCN(C)CC#Cc1ccc(OCCCc2sc(N3CCCc4c3nnc(Nc3nc5ccccc5s3)c4C)nc2C(=O)O)c(F)c1` [Example 88, 2-[3-(1,3-Benzothiazol-2-ylamino)-4-methyl-6,7-dihydro-5H-pyrido[2,3-c]pyridazin-8-yl]-5-[3-[4-[3-[ethyl(methyl)amino]prop-1-ynyl]-2-fluoro-phenoxy]propyl]thiazole-4-carboxylic acid] came in with an IC50 in the experiment on MOLT-4 cells (Homo sapiens, MOLT-4, 48 h) of 0.181 nM. Besides, the Ki in experiment [1] came to 0.01 nM.
Turning to `Cc1c(Nc2nc3ccccc3s2)nnc2c1CCCN2c1ccc(-c2cnn(CC34CC5(C)CC(C)(C3)CC(OCCN(C)CCCCO)(C5)C4)c2C)c(C(=O)O)n1` [Example 153, 6-[3-(1,3-benzothiazol-2-ylamino)-4-methyl-6,7-dihydro-5H-pyrido[2,3-c]pyridazin-8-yl]-3-[1-[[3-[2-[4-hydroxybutyl(methyl)amino]ethoxy]-5,7-dimethyl-1-adamantyl]methyl]-5-methyl-pyrazol-4-yl]pyridine-2-carboxylic acid], half-maximal inhibition in the experiment on MOLT-4 cells (Homo sapiens, MOLT-4, 48 h) (IC50) required 0.229 nM. Besides, in experiment [1], the Ki was 0.0012 nM.
On to `Cc1c(Nc2nc3ccccc3s2)nnc2c1CCCN2c1nc(C(=O)O)c(CCCOc2ccc(C34CC(CN(C)C)(C3)C4)cc2F)s1` [Example 90, 2-[3-(1,3-Benzothiazol-2-ylamino)-4-methyl-6,7-dihydro-5H-pyrido[2,3-c]pyridazin-8-yl]-5-[3-[4-[1-[(dimethylamino)methyl]-3-bicyclo[1.1.1]pentanyl]-2-fluoro-phenoxy]propyl]thiazole-4-carboxylic acid], for which the midpoint of inhibition in the experiment on MOLT-4 cells (Homo sapiens, MOLT-4, 48 h), the IC50, lay at 0.46 nM. The Ki in experiment [1] came out at 0.0022 nM.
Take `Cc1c(Nc2nc3ccccc3s2)nnc2c1CCCN2c1nc(C(=O)O)c(CCCOc2ccc(C#CC(C)(C)N3CCCC3)cc2F)s1` [Example 81, 2-[3-(1,3-Benzothiazol-2-ylamino)-4-methyl-6,7-dihydro-5H-pyrido[2,3-c]pyridazin-8-yl]-5-[3-[2-fluoro-4-(3-methyl-3-pyrrolidin-1-yl-but-1-ynyl)phenoxy]propyl]thiazole-4-carboxylic acid]: in the experiment on MOLT-4 cells (Homo sapiens, MOLT-4, 48 h), the IC50 turned out to be 0.175 nM. Besides, in experiment [1], the Ki was found to be 0.015 nM.
Regarding `COCCCN(C)CCOC12CC3(C)CC(C)(CC(Cn4ncc(-c5ccc(N6CCCc7c6nnc(Nc6nc8ccccc8s6)c7C)nc5C(=O)O)c4C)(C3)C1)C2` [Example 151, 6-[3-(1,3-benzothiazol-2-ylamino)-4-methyl-6,7-dihydro-5H-pyrido[2,3-c]pyridazin-8-yl]-3-[1-[[3-[2-[3-methoxypropyl(methyl)amino]ethoxy]-5,7-dimethyl-1-adamantyl]methyl]-5-methyl-pyrazol-4-yl]pyridine-2-carboxylic acid], 0.0824 nM corresponded to half-maximal inhibition with MOLT-4 cells (Homo sapiens, MOLT-4, 48 h) (IC50). Also, the Ki in experiment [1] stood at 0.0015 nM.
